Active and inactive are the calls of the source. No cut-off for these calls is given here.
Legend:
Assay type in all cases: nucleic-acid assay
Nucleic Acid [1] = test: Binding affinity to G-quadruplex F21T DNA assessed as change in melting temperature at 0.8 uM under K+ ionic conditions by FRET assay
Nucleic Acid [2] = test: Binding affinity to G-quadruplex F21T DNA assessed as change in melting temperature at 0.6 uM under K+ ionic conditions by FRET assay
Nucleic Acid [3] = test: Binding affinity to G-quadruplex F21T DNA assessed as change in melting temperature at 3 uM under Na+ ionic conditions by FRET assay
Nucleic Acid [4] = test: Binding affinity to G-quadruplex F21T DNA assessed as quadruplex stabilization at 3 uM by FRET assay in presence of duplex ds26 oligonucleotide
Nucleic Acid [5] = test: Binding affinity to G-quadruplex F21T DNA assessed as change in melting temperature at 3 uM under K+ ionic conditions by FRET assay
Nucleic Acid [6] = test: Binding affinity to G-quadruplex F21T DNA assessed as change in melting temperature at 0.1 uM under K+ ionic conditions by FRET assay
Nucleic Acid [7] = test: Binding affinity to G-quadruplex F21T DNA assessed as change in melting temperature at 0.3 uM under K+ ionic conditions by FRET assay

| Compound | ΔTm (Nucleic Acid [3]) [°C] | Activity (Nucleic Acid [4]) | ΔTm (Nucleic Acid [5]) [°C] | further results |
| --- | --- | --- | --- | --- |
| Cc1oc2nc1-c1nc(co1)-c1nc(co1)-c1nc(co1)-c1nc(co1)-c1nc(co1)C1=NC(CS1)c1nc-2c(C)o1 (stereo not drawn) |  |  |  | ΔTm (Nucleic Acid [1]): 15 °C; ΔTm (Nucleic Acid [2]): 10 °C |
| c1cc(-c2nc3scc(-c4ccc(OCCN5CCCCC5)cc4)n3n2)ccc1OCCN1CCCCC1 | 2.1 | Active | 8.7 |  |
| O=C(NCCN1CCCCC1)c1ccc(-c2csc3nc(-c4ccc(OCCN5CCCCC5)cc4)nn23)cc1 | 5 | Active | 11.2 |  |
| O=C(NCCN1CCCCC1)c1ccc(-c2csc3nc(-c4ccc(O)cc4)nn23)cc1 | < 1 |  | 1.8 |  |
| O=C(NCCN1CCCCC1)c1ccc(-c2csc3nc(-c4ccc(OCc5ccccc5)cc4)nn23)cc1 | < 1 |  | 2.7 |  |
| O=C(NCCN1CCCCC1)c1ccc(-c2csc3nc(-c4ccc(OCCN5CCCC5)cc4)nn23)cc1 | 5.9 | inactive | 14.6 |  |
| NC(=O)c1cccc(C(N)=O)n1 |  |  |  | ΔTm (Nucleic Acid [6]): 10 °C; ΔTm (Nucleic Acid [7]): 15 °C |
| Oc1ccc(-c2nc3scc(-c4ccc(O)cc4)n3n2)cc1 | < 1 |  | < 1 |  |

The next lines start with results.

| ΔTm (Nucleic Acid [3]) [°C] | Activity (Nucleic Acid [4]) | ΔTm (Nucleic Acid [5]) [°C] | Compound | further results |
| --- | --- | --- | --- | --- |
| < 1 |  | < 1 | CCOC(=O)c1ccc(-c2csc3nc(-c4ccc(OCc5ccccc5)cc4)nn23)cc1 |  |
| < 1 |  | < 1 | c1ccc(COc2ccc(-c3nc4scc(-c5ccc(OCc6ccccc6)cc5)n4n3)cc2)cc1 |  |
